Source: ChEMBL document CHEMBL5252552, “Defined concatenated α6α1β3γ2 GABAA receptor constructs reveal dual action of pyrazoloquinolinone allosteric modulators” (Bioorg Med Chem, 2019)

Assays:
[1] = target: T1, Gamma-aminobutyric acid receptor subunit alpha-1/beta-3/gamma-2 (Rattus norvegicus) (UniProt P18508+P62813+P63079); experiment: Positive allosteric modulation of rat recombinant GABAA alpha1beta3alpha1-gamma2beta3 receptor expressed in Xenopus laevis oocytes assessed as maximal efficacy at -80 mV holding potential at 30 uM in presence of GABA EC1 to 1.5 by two-electrode voltage-clamp assay; assay type: cell-based; settings: Oocyte, filed as positive allosteric modulator
[2] = target: T2, Gamma-aminobutyric acid receptor subunit alpha-1/alpha-6/beta-3/gamma-2 (Rattus norvegicus) (UniProt P18508+P30191+P62813+P63079); experiment: Positive allosteric modulation of rat recombinant GABAA gamma2beta3alpha1-beta3alpha6 receptor expressed in Xenopus laevis oocytes assessed as maximal efficacy at -80 mV holding potential at 300 nM in presence of GABA EC1 to 1.5 by two-electrode voltage-clamp assay; assay type: cell-based; settings: Oocyte, filed as positive allosteric modulator
[3] = target: T1, Gamma-aminobutyric acid receptor subunit alpha-1/beta-3/gamma-2 (Rattus norvegicus); experiment: Positive allosteric modulation of rat recombinant GABAA alpha1beta3gamma2 receptor expressed in Xenopus laevis oocytes assessed as maximal efficacy at -80 mV holding potential at 300 nM in presence of GABA EC1 to 1.5 by two-electrode voltage-clamp assay; assay type: cell-based; settings: Oocyte
[4] = target: T1, Gamma-aminobutyric acid receptor subunit alpha-1/beta-3/gamma-2 (Rattus norvegicus); experiment: Positive allosteric modulation of rat recombinant GABAA alpha1beta3gamma2 receptor expressed in Xenopus laevis oocytes assessed as maximal efficacy at -80 mV holding potential at 10 uM in presence of GABA EC1 to 1.5 by two-electrode voltage-clamp assay; assay type: cell-based; settings: Oocyte, filed as positive allosteric modulator
[5] = target: T3, Gamma-aminobutyric acid receptor subunit alpha-6/beta-3/gamma-2 (Rattus norvegicus) (UniProt P18508+P30191+P63079); experiment: Positive allosteric modulation of rat recombinant GABAA alpha6beta3alpha6-gamma2beta3 receptor expressed in Xenopus laevis oocytes assessed as maximal efficacy at -80 mV holding potential at 3 nM in presence of GABA EC1 to 1.5 by two-electrode voltage-clamp assay; assay type: cell-based; settings: Oocyte
[6] = target: T3, Gamma-aminobutyric acid receptor subunit alpha-6/beta-3/gamma-2 (Rattus norvegicus); experiment: Positive allosteric modulation of rat recombinant GABAA alpha6beta3gamma2 receptor expressed in Xenopus laevis oocytes assessed as maximal efficacy at -80 mV holding potential at 1 nM in presence of GABA EC1 to 1.5 by two-electrode voltage-clamp assay; assay type: cell-based; settings: Oocyte
[7] = target: T2, Gamma-aminobutyric acid receptor subunit alpha-1/alpha-6/beta-3/gamma-2 (Rattus norvegicus); experiment: Positive allosteric modulation of rat recombinant GABAA alpha6beta3alpha1-gamma2beta3 receptor expressed in Xenopus laevis oocytes assessed as maximal efficacy at -80 mV holding potential at 300 nM in presence of GABA EC1 to 1.5 by two-electrode voltage-clamp assay; assay type: cell-based; settings: Oocyte, filed as positive allosteric modulator
[8] = target: T1, Gamma-aminobutyric acid receptor subunit alpha-1/beta-3/gamma-2 (Rattus norvegicus); experiment: Positive allosteric modulation of rat recombinant GABAA alpha1beta3gamma2 receptor expressed in Xenopus laevis oocytes assessed as maximal current at -80 mV holding potential under less potent phase in presence of GABA EC1 to 1.5 by two-electrode voltage-clamp assay relative to control; assay type: cell-based; settings: Oocyte, filed as positive allosteric modulator
[9] = target: T1, Gamma-aminobutyric acid receptor subunit alpha-1/beta-3/gamma-2 (Rattus norvegicus); experiment: Positive allosteric modulation of rat recombinant GABAA alpha1beta3alpha1-gamma2beta3 receptor expressed in Xenopus laevis oocytes assessed as maximal efficacy at -80 mV holding potential at 1 uM in presence of GABA EC1 to 1.5 by two-electrode voltage-clamp assay; assay type: cell-based; settings: Oocyte
[10] = target: T4, Gamma-aminobutyric acid receptor subunit alpha-1/alpha-6/beta-3/gamma-2 (Rattus norvegicus, UniProt P18508+P30191+P62813+P63079); experiment: (§1) Positive allosteric modulation of rat recombinant GABAA gamma2beta3alpha1-beta3alpha6 receptor expressed in Xenopus laevis oocytes assessed as increase in GABA-induced current amplitude at -80 mV holding potential under more potent phase in presence of GABA EC1 to 1.5 by two-electrode voltage-clamp assay; assay type: cell-based, Oocyte
T4 sequence (P18508 whole entry): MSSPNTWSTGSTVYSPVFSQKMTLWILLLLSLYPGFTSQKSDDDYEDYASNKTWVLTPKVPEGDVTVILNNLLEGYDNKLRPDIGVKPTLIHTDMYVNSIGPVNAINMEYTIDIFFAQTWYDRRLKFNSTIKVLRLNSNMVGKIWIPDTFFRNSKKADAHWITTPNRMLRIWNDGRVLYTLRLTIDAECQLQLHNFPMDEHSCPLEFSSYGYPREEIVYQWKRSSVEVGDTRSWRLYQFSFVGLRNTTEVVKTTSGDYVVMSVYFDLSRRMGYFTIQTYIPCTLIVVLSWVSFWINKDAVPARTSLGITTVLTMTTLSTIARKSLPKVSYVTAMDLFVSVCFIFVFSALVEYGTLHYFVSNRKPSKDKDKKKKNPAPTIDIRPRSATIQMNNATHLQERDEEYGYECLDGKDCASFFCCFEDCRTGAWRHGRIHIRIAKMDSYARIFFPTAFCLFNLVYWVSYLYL
T4 sequence (P30191 whole entry): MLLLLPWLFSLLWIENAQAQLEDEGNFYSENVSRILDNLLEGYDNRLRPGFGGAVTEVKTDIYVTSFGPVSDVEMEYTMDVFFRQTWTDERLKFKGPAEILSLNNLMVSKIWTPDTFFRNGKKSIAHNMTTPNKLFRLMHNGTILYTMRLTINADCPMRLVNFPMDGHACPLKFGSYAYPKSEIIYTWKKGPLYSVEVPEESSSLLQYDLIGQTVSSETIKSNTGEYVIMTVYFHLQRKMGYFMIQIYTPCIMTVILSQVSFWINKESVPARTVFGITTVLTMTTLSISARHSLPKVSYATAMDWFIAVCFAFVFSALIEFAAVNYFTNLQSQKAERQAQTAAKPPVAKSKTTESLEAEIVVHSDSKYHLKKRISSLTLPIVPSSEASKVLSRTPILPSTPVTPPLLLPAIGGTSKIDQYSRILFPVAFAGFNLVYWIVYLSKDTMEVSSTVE
T4 sequence (P62813 whole entry): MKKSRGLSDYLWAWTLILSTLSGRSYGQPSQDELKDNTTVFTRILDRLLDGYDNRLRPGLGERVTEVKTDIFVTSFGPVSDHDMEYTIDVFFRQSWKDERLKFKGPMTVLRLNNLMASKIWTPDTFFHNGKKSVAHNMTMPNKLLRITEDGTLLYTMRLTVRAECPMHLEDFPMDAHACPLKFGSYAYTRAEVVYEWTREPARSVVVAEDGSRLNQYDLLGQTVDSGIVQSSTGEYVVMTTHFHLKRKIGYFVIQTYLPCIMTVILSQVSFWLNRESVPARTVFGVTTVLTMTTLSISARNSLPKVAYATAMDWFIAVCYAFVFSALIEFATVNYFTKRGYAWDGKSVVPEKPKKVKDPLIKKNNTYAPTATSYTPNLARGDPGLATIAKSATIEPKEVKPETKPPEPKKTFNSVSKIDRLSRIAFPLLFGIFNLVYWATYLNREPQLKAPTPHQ
T4 sequence (P63079 whole entry): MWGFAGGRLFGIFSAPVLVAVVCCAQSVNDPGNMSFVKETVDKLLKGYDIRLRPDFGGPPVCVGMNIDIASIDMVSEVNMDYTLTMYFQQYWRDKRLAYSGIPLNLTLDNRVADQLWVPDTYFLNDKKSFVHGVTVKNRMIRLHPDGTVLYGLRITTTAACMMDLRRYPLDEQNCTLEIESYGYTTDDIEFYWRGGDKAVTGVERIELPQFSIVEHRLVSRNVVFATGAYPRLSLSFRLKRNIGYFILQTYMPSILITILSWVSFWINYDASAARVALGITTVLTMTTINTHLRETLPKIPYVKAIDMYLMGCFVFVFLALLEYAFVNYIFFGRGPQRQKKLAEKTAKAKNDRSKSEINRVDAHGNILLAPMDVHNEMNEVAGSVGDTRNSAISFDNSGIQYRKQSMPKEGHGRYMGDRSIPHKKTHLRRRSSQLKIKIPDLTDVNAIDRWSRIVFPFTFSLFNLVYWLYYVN

[11] = target: T3, Gamma-aminobutyric acid receptor subunit alpha-6/beta-3/gamma-2 (Rattus norvegicus); experiment: Positive allosteric modulation of rat recombinant GABAA alpha6beta3alpha6-gamma2beta3 receptor expressed in Xenopus laevis oocytes assessed as maximal efficacy at -80 mV holding potential at 1 nM in presence of GABA EC1 to 1.5 by two-electrode voltage-clamp assay; assay type: cell-based; settings: Oocyte
[12] = target: T3, Gamma-aminobutyric acid receptor subunit alpha-6/beta-3/gamma-2 (Rattus norvegicus); experiment: Positive allosteric modulation of rat recombinant GABAA alpha6beta3gamma2 receptor expressed in Xenopus laevis oocytes assessed as maximal efficacy at -80 mV holding potential at 30 uM in presence of GABA EC1 to 1.5 by two-electrode voltage-clamp assay; assay type: cell-based; settings: Oocyte, filed as positive allosteric modulator
[13] = target: T2, Gamma-aminobutyric acid receptor subunit alpha-1/alpha-6/beta-3/gamma-2 (Rattus norvegicus); experiment: Positive allosteric modulation of rat recombinant GABAA alpha6beta3alpha1-gamma2beta3 receptor expressed in Xenopus laevis oocytes assessed as maximal efficacy at -80 mV holding potential at 100 nM in presence of GABA EC1 to 1.5 by two-electrode voltage-clamp assay; assay type: cell-based; settings: Oocyte
[14] = target: T2, Gamma-aminobutyric acid receptor subunit alpha-1/alpha-6/beta-3/gamma-2 (Rattus norvegicus); experiment: Positive allosteric modulation of rat recombinant GABAA gamma2beta3alpha1-beta3alpha6 receptor expressed in Xenopus laevis oocytes assessed as maximal efficacy at -80 mV holding potential at 1 uM in presence of GABA EC1 to 1.5 by two-electrode voltage-clamp assay; assay type: cell-based; settings: Oocyte, filed as positive allosteric modulator
[15] = target: T3, Gamma-aminobutyric acid receptor subunit alpha-6/beta-3/gamma-2 (Rattus norvegicus); experiment: Positive allosteric modulation of rat recombinant GABAA alpha6beta3alpha6-gamma2beta3 receptor expressed in Xenopus laevis oocytes assessed as maximal current under less potent phase in presence of GABA EC1 to 1.5 by two-electrode voltage-clamp assay relative to control; assay type: cell-based; settings: Oocyte, filed as positive allosteric modulator
[16] = target: T3, Gamma-aminobutyric acid receptor subunit alpha-6/beta-3/gamma-2 (Rattus norvegicus); experiment: Positive allosteric modulation of rat recombinant GABAA alpha6beta3alpha6-gamma2beta3 receptor expressed in Xenopus laevis oocytes assessed as maximal efficacy at -80 mV holding potential at 10 uM in presence of GABA EC1 to 1.5 by two-electrode voltage-clamp assay; assay type: cell-based; settings: Oocyte, filed as positive allosteric modulator
[17] = target: T2, Gamma-aminobutyric acid receptor subunit alpha-1/alpha-6/beta-3/gamma-2 (Rattus norvegicus); experiment: Positive allosteric modulation of rat recombinant GABAA alpha6beta3alpha1-gamma2beta3 receptor expressed in Xenopus laevis oocytes assessed as maximal efficacy at -80 mV holding potential at 1 uM in presence of GABA EC1 to 1.5 by two-electrode voltage-clamp assay; assay type: cell-based; settings: Oocyte, filed as positive allosteric modulator
[18] = target: T2, Gamma-aminobutyric acid receptor subunit alpha-1/alpha-6/beta-3/gamma-2 (Rattus norvegicus); experiment: Positive allosteric modulation of rat recombinant GABAA gamma2beta3alpha1-beta3alpha6 receptor expressed in Xenopus laevis oocytes assessed as maximal efficacy at -80 mV holding potential at 3 nM in presence of GABA EC1 to 1.5 by two-electrode voltage-clamp assay; assay type: cell-based; settings: Oocyte
[19] = target: T3, Gamma-aminobutyric acid receptor subunit alpha-6/beta-3/gamma-2 (Rattus norvegicus); experiment: Positive allosteric modulation of rat recombinant GABAA alpha6beta3alpha6-gamma2beta3 receptor expressed in Xenopus laevis oocytes assessed as maximal efficacy at -80 mV holding potential at 300 nM in presence of GABA EC1 to 1.5 by two-electrode voltage-clamp assay; assay type: cell-based; settings: Oocyte, filed as positive allosteric modulator
[20] = target: T2, Gamma-aminobutyric acid receptor subunit alpha-1/alpha-6/beta-3/gamma-2 (Rattus norvegicus); experiment: Positive allosteric modulation of rat recombinant GABAA gamma2beta3alpha1-beta3alpha6 receptor expressed in Xenopus laevis oocytes assessed as maximal efficacy at -80 mV holding potential at 100 nM in presence of GABA EC1 to 1.5 by two-electrode voltage-clamp assay; assay type: cell-based; settings: Oocyte, filed as positive allosteric modulator
[21] = target: T4, Gamma-aminobutyric acid receptor subunit alpha-1/alpha-6/beta-3/gamma-2; experiment: as §1, with “alpha6beta3alpha1-gamma2beta3” for “gamma2beta3alpha1-beta3alpha6”, “less” for “more”; assay type: cell-based, Oocyte
[22] = target: T2, Gamma-aminobutyric acid receptor subunit alpha-1/alpha-6/beta-3/gamma-2 (Rattus norvegicus); experiment: Positive allosteric modulation of rat recombinant GABAA alpha6beta3alpha1-gamma2beta3 receptor expressed in Xenopus laevis oocytes assessed as maximal efficacy at -80 mV holding potential at 30 nM in presence of GABA EC1 to 1.5 by two-electrode voltage-clamp assay; assay type: cell-based; settings: Oocyte
[23] = target: T3, Gamma-aminobutyric acid receptor subunit alpha-6/beta-3/gamma-2 (Rattus norvegicus); experiment: Positive allosteric modulation of rat recombinant GABAA alpha6beta3gamma2 receptor expressed in Xenopus laevis oocytes assessed as maximal efficacy at -80 mV holding potential at 10 uM in presence of GABA EC1 to 1.5 by two-electrode voltage-clamp assay; assay type: cell-based; settings: Oocyte, filed as positive allosteric modulator
[24] = target: T3, Gamma-aminobutyric acid receptor subunit alpha-6/beta-3/gamma-2 (Rattus norvegicus); experiment: Positive allosteric modulation of rat recombinant GABAA alpha6beta3alpha6-gamma2beta3 receptor expressed in Xenopus laevis oocytes assessed as maximal current at -80 mV holding potential under more potent phase in presence of GABA EC1 to 1.5 by two-electrode voltage-clamp assay relative to control; assay type: cell-based; settings: Oocyte, filed as positive allosteric modulator

- Efficacy [1]: 242%
- Efficacy [2]: 48%
- Efficacy [3]: 11%
- Efficacy [4]: 84%
- Efficacy [5]: 19%
- Efficacy [6]: 9%
- Efficacy [7]: 60%
- %max [8]: 132%
- Efficacy [9]: 34%
- EC50 [10]: 0.004 µM
- Efficacy [11]: 5%
- Efficacy [12]: 595%
- Efficacy [13]: 18%
- Efficacy [14]: 80%
- %max [15]: 657%
- Efficacy [16]: 621%
- Efficacy [17]: 144%
- Efficacy [18]: 16%
- Efficacy [19]: 124%
- Efficacy [20]: 45%
- EC50 [21]: 7 µM
- Efficacy [22]: 8%
- Efficacy [23]: 585%
- %max [24]: 82%
Compound: COc1ccc(-n2nc3c4ccc(Br)cc4[nH]cc-3c2=O)cc1
